Test results from article PMC7580737, “Synthesis, in vitro inhibitory activity, kinetic study and molecular docking of novel N-alkyl–deoxynojirimycin derivatives as potential α-glucosidase inhibitors” (Journal of Enzyme Inhibition and Medicinal Chemistry, 2020).
Where two headings read alike, the source gives them in different places.

Assays:
[1] = target: α-glucosidase (EC 3.2.1.20) (Saccharomyces cerevisiae, UniProt P53341); experiment: biochemical; assay type: biochemical
α-glucosidase = target: T1, α-glucosidase (Saccharomyces cerevisiae, UniProt P53341); experiment: Kinetic study of α-glucosidase inhibition (Lineweaver–Burk plots); assay type: biochemical; details: for Type of inhibition: Lineweaver–Burk plots: Vmax not affected, Km increased; for Ki: determined by Lineweaver–Burk plots
T1 construct: purchased Sigma-Aldrich
T1 sequence (P53341 whole entry): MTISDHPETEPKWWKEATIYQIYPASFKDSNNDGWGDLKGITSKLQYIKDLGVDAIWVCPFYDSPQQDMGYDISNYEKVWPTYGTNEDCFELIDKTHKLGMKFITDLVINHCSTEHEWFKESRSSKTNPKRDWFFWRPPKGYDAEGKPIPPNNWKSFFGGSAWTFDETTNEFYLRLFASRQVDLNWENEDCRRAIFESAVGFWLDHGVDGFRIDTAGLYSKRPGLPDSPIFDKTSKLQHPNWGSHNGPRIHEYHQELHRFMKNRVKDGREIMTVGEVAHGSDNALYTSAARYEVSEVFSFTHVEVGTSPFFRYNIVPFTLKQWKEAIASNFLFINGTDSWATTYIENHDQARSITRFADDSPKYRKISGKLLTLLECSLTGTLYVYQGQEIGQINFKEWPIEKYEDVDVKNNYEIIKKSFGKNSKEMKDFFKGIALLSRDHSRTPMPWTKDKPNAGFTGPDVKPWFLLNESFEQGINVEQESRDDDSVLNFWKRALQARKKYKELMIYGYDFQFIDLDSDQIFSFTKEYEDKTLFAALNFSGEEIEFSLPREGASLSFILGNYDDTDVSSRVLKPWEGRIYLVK
Description: The type of inhibition and value of Ki were determined by Lineweaver–Burk plots.
The 10 µL of enzyme solution (1 U/mL) was incubated with different concentrations of compound 43 (0.00 mM,0.012 mM, 0.02 mM, 0.04 mM), 40 (0.00 mM, 0.06 mM, 0.10 mM, 0.20 mM)and 34 (0.00 mM, 0.30 mM, 0.50 mM, 1.00 mM) for 20 min at 37 °C, then added different concentrations of substrate (1 mM, 0.9 mM, 0.75 mM, 0.6 mM, 0.45 mM, 0.3 mM, 0.25 mM), and change in absorbance was measured for 20 min at 405 nm by using spectrophotometer.

[2] = phosphate buffer pH 6.8, 37 °C, PNPG substrate, mean ± SD, at least three experiments, read-out: IC50 (α-glucosidase inhibitory activity)

α-glucosidase (EC 3.2.1.20), sequence (P53341 whole entry): as above

Row | IC50 [1, 2] [µM] | SMILES | IC50 [1] [µM] | melting point [°C] | other results
1 | – | O=C(/C=C/c1ccccc1)OCCN1C[C@H](O)[C@@H](O)[C@H](O)[C@H]1CO [Compound 25, 2-(3,4,5-Trihydroxy-2-(hydroxymethyl)piperidin-1-yl) ethyl cinnamate] | 1094 ± 1.8 | – | –
2 | – | O=C(/C=C/c1ccccc1)c1ccccc1OCCN1CC(O)C(O)C(O)C1CO (stereo not drawn) [Compound 40, (E)-3-phenyl-1-(2-(2-(3,4,5-trihydroxy-2-(hydroxymethyl)piperidin-1-yl)ethoxy)phenyl)prop-2-en-1-one] | 160.5 ± 0.6 | – | fold more active than acarbose [1]: around 5 fold; Type of inhibition (α-glucosidase): competitive inhibitors; Ki (α-glucosidase): 52 µM
3 | – | CCOC(=O)/C=C/c1ccc(OCCN2CC(O)C(O)C(O)C2CO)c(OC)c1 (stereo not drawn) [Compound 35, Ethyl(E)-3-(3-methoxy-4-(2-(3,4,5-trihydroxy-2-(hydroxymethyl)piperidin-1-yl)ethoxy)phenyl)acrylate] | 966.2 ± 0.4 | 146 to 148 | –
4 | > 2000 | CCOC(=O)C=Cc1ccc(OCCCCCN2CC(O)C(O)C(O)C2CO)c(OC)c1 (stereo not drawn) [Compound 38] | – | – | –
5 | > 2000 | CCOC(=O)C=Cc1ccc(OCCCN2CC(O)C(O)C(O)C2CO)c(OC)c1 (stereo not drawn) [Compound 36] | – | – | –
6 | > 2000 | CCOC(=O)C=Cc1ccc(OCCCCCCN2CC(O)C(O)C(O)C2CO)c(OC)c1 (stereo not drawn) [Compound 39, Ethyl(E)-3-(3-methoxy-4-(6-(3,4,5-trihydroxy-2-(hydroxymethyl)piperidin-1-yl)ethoxy)phenyl)acrylate] | – | – | –
7 | – | COC(=O)C=Cc1ccc(OCCCCN2CC(O)C(O)C(O)C2CO)cc1 (stereo not drawn) [Compound 32] | 667 ± 1.6 | 157 to 160 | –
8 | > 2000 | CCOC(=O)C=Cc1ccc(OCCCCN2CC(O)C(O)C(O)C2CO)c(OC)c1 (stereo not drawn) [Compound 37] | – | – | –
9 | > 2000 | COC(=O)C=Cc1ccc(OCCCN2CC(O)C(O)C(O)C2CO)cc1 (stereo not drawn) [Compound 31] | – | 104 to 107 | –
10 | – | COC(=O)C=Cc1ccc(OCCCCCCN2CC(O)C(O)C(O)C2CO)cc1 (stereo not drawn) [Compound 34] | 417 ± 0.14 | 110 to 113 | Type of inhibition (α-glucosidase): competitive inhibitors; Ki (α-glucosidase): 150 µM
11 | – | O=C(/C=C/c1ccccc1)OCCCN1C[C@H](O)[C@@H](O)[C@H](O)[C@H]1CO [Compound 26, 3-(3,4,5-Trihydroxy-2-(hydroxymethyl)piperidin-1-yl) ethyl cinnamate] | 1099 ± 1.1 | – | –
12 | – | COC(=O)C=Cc1ccc(OCCCCCN2CC(O)C(O)C(O)C2CO)cc1 (stereo not drawn) [Compound 33] | 602.3 ± 1.2 | 85 to 86 | –
13 | – | O=C(C=Cc1ccccc1)c1ccccc1OCCCCCN1CC(O)C(O)C(O)C1CO (stereo not drawn) [Compound 43] | 30 ± 0.6 | – | fold more active than 1-DNJ [1]: ~7 fold; fold more active than acarbose [1]: ~27 fold; Type of inhibition (α-glucosidase): competitive inhibitors; Ki (α-glucosidase): 10 µM
14 | – | COC(=O)/C=C/c1ccc(OCCN2CC(O)C(O)C(O)C2CO)cc1 (stereo not drawn) [Compound 30, Methyl(E)-3-(4-(2-(3,4,5-trihydroxy-2-(hydroxymethyl)piperidin-1-yl)ethoxy)phenyl) acrylate] | 1272.2 ± 1.2 | 185 to 187 | –
15 | – | O=C(/C=C/c1ccccc1)OCCCCCCN1C[C@H](O)[C@@H](O)[C@H](O)[C@H]1CO [Compound 29] | 976.5 ± 0.7 | – | –
